“Also recorded” adds a separate entry of the source.
Tests used:
CYP2C8 = target: T1, CYP2C8 (Homo sapiens, UniProt P10632); assay: Drug-drug interaction study, cocktail approach: CYP2C8 substrate; conditions: in vivo
T1 construct: from tissue; host or cells: human subjects, in vivo (clinical pharmacology)
T1 sequence (P10632 1-490): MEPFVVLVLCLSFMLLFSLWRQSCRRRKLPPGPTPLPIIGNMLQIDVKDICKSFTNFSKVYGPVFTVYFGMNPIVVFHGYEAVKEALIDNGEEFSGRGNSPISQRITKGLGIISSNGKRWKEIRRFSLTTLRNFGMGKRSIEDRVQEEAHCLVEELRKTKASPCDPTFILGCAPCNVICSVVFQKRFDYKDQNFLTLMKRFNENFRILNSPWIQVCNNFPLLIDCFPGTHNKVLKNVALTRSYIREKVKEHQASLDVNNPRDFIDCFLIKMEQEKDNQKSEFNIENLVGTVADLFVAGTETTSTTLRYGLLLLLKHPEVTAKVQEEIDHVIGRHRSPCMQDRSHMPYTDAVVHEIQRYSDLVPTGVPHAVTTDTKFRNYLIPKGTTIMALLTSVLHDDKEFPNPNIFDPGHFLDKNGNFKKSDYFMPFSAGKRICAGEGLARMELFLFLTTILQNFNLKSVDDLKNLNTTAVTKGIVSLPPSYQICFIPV

CYP3A4 = target: T2, CYP3A4 (Homo sapiens, UniProt P08684); assay: Contribution of CYP3A4 in the metabolism of apalutamide; assay type: in vivo; conditions: estimated
T2 construct: from tissue; host or cells: human subjects, in vivo (clinical pharmacology)

[1] = Preclinical pharmacokinetic profile; assay type: in vivo
[2] = Single oral administration of 14C-labeled apalutamide 240 mg (metabolite profile, excretion)
[3] = Incubation with liver S9 fraction and liver microsomes; assay type: in vitro ADME; conditions: incubated for up to 120 minutes; rat, dog, and human
Source text: The primary in vivo metabolites were formed by N-demethylation and amide hydrolysis in the rat and dog.

[4] = test system: castration-resistant LNCaP/AR-Luc xenograft model; assay: Murine tumor (xenograft) models of CRPC; assay type: in vivo; conditions: for tumor cell proliferation and apoptosis in vivo: CRPC / mouse xenograft models of prostate cancer
[5] = target: T3, organic anion transporter 1 (OAT1) (Homo sapiens, UniProt Q4U2R8); assay: In vitro transporter inhibition: OAT1
T3 sequence (Q4U2R8 1-563): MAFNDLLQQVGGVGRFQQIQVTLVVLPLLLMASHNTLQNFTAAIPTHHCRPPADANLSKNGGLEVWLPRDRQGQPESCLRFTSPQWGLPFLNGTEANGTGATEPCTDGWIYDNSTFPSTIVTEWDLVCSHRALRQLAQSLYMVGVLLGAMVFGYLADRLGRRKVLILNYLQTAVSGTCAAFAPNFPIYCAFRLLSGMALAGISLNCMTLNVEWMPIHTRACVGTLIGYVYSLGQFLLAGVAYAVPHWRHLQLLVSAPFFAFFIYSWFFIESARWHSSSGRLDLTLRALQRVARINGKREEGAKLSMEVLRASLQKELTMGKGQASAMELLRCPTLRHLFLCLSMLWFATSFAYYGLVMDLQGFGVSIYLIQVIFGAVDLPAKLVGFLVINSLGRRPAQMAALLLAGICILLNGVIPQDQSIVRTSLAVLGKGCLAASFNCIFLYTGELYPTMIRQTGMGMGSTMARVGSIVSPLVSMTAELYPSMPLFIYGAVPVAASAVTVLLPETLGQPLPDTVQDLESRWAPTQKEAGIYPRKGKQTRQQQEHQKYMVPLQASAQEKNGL

[6] = Drug-drug interaction studies: effect of other medications on apalutamide; assay type: in vivo, human
[7] = Dedicated QT study in patients with CRPC; assay type: in vivo, human; conditions: 240 mg once daily
Source text: There was no difference greater than 20 ms in the mean QT interval change from baseline, based on the Fridericia correction method, across all timepoints at steady-state.
The maximum mean QTcF change from baseline was 12.4 ms (2-sided 90% upper CI: 16.0 ms).

[8] = Fertility study in male rats; assay type: in vivo
[9] = test system: CYP2C9, CYP2C19, and CYP3A4; assay: In vitro CYP inhibition: CYP2C9, CYP2C19, CYP3A4
[10] = Phase III study (SPARTAN, Study 1): safety; assay type: in vivo, human
Source text: SPARTAN, a randomized (2:1), double-blind, placebo-controlled, multi-center clinical study, enrolled patients who had non-metastatic, castration-resistant prostate cancer (NM-CRPC).

T2 sequence (P08684 whole entry): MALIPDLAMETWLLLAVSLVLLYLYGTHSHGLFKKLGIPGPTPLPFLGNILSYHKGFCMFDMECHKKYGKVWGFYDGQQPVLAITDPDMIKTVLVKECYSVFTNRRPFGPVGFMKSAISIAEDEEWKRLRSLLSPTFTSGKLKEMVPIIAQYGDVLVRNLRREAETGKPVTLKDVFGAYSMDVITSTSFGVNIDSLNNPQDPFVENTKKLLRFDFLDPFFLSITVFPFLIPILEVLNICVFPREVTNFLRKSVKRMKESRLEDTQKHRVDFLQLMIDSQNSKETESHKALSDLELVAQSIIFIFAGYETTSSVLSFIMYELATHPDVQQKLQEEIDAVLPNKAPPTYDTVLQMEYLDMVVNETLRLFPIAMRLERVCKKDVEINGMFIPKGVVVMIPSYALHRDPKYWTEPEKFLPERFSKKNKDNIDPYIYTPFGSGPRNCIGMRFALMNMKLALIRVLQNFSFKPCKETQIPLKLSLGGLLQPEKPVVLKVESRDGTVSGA

Which “changes in exposure to the CYP2C8 substrate” value (CYP2C8) does the source give for `CNC(=O)c1ccc(N2C(=S)N(c3cnc(C#N)c(C(F)(F)F)c3)C(=O)C23CCC3)cc1F` [apalutamide, 4-[7-(6-cyano-5-trifluoromethylpyridin-3-yl)-8-oxo-6-thioxo-5,7-diazaspiro[3.4]oct-5-yl]-2-fluoro-N-methylbenzamide] here?
The value was “did not cause clinically meaningful changes”.

What about the “contribution of CYP3A4 in the metabolism” value (CYP3A4; at steady-state) of the same molecule?
Its value is 37%.

And the “contribution of CYP3A4 in the metabolism” value (CYP3A4; following single dose)?
Its value is 13%.

What about the clearance ([1]; preclinical) of the same molecule?
Its clearance is “low clearance”.

And the volume of distribution ([1]; preclinical)?
The volume of distribution was “moderate volume of distribution”.

What about the bioavailability ([1]; when dosed with a lipid-based formulation) of the same molecule?
Its bioavailability is “high bioavailability”.

What about the “share of the total 14C-AUC in plasma” value ([2]; single oral 240 mg) of the same molecule?
Its value is 45%.

And the “% of dose in feces as this compound” value ([2]; up to 70 days)?
Its value is 1.5%.

And the “% of dose in urine as this compound” value ([2]; up to 70 days)?
Its value is 1.2%.

And the “radioactivity recovered in feces” value ([2]; up to 70 days)?
The value was 24%.

And the “radioactivity recovered in urine” value ([2]; up to 70 days)?
Its value is 65%.

What about the radioactivity recovered ([2]; up to 70 days post-dose) of the same molecule?
Its radioactivity recovered is 89%.

What about the turnover [3] of the same molecule?
The turnover was “very low turnover”.

What about the “tumor cell proliferation and apoptosis in vivo” value [4] of the same molecule?
Its value is “reduce proliferation of CRPC cells as well as increase apoptosis and necrosis”.

And the “tumor cell proliferation and apoptosis in vivo” value ([4]; listed as Apalutamide)?
Its value is “decreased tumor cell proliferation and increased apoptosis leading to decreased tumor volume”.

What about the “tumor growth inhibition and tumor regression” value ([4]; murine tumor models of CRPC) of the same molecule?
Its value is “dose-dependent tumor growth inhibition and tumor regression that were superior to bicalutamide”.

What about the “inhibition of OAT1” value [5] of the same molecule?
Its value is “No in vitro inhibition; also recorded: do not inhibit”.

What about the “increase in AUC of apalutamide” value ([6]; 240 mg single dose with gemfibrozil) of the same molecule?
Its value is 68%.

What about the “decrease in Cmax of apalutamide” value ([6]; 240 mg single dose with gemfibrozil (strong CYP2C8 inhibitor)) of the same molecule?
Its value is 21%.

What about the AUC of apalutamide ([6]; 240 mg single dose with itraconazole) of the same molecule?
Its AUC of apalutamide is “similar”.

And the “decrease in Cmax of apalutamide” value ([6]; 240 mg single dose with itraconazole (strong CYP3A4 inhibitor))?
Its value is 22%.

And the “maximum mean QTcF change from baseline” value ([7]; 45 patients with CRPC)?
The value was 12.4 ms.

And the “difference in mean QT interval change from baseline (Fridericia correction)” value ([7]; all timepoints at steady-state)?
The value was ≤ 20 ms.

And the “genotoxicity, in vivo rat Comet assay” value (In vivo rat Comet assay)?
Its value is “not genotoxic”.

What about the “live fetuses (pre- and/or post-implantation loss)” value ([8]; 4 weeks of 150 mg/kg/day) of the same molecule?
The value was “reduced number of live fetuses”.

What about the “dose with decreased sperm concentration and motility, copulation and fertility rates, reduced secondary sex gland and epididymis weights” value ([8]; 4 weeks of dosing, male rats) of the same molecule?
Its value is > 25 mg/kg/day.

What about the “reversibility of effects on male rats” value ([8]; after 8 weeks from the last administration) of the same molecule?
Its value is “reversible”.

What about the “inhibition of CYP2C9, CYP2C19, and CYP3A4” value [9] of the same molecule?
The value was “weak inhibitors”.

And the Arthralgia ([10]; All Grades)?
Its Arthralgia is 15.9%.

What about the Fall ([10]; All Grades) of the same molecule?
Its Fall is 15.6%.

And the “Fracture (grouped term)” value ([10]; All Grades)?
Its value is 11.7%.

And the Hypercholesterolemia ([10]; All Grades)?
Its Hypercholesterolemia is 6.1%.

And the Hypertriglyceridemia ([10]; All Grades)?
The Hypertriglyceridemia was 3.5%.

And the “Hypothyroidism (grouped term)” value ([10]; All Grades)?
Its value is 8.1%.

What about the Pruritus ([10]; All Grades) of the same molecule?
The Pruritus was 6.2%.

And the Seizure ([10]; All Grades)?
The Seizure was 0.2%.

What about the “Skin rash (grouped term)” value ([10]; All Grades) of the same molecule?
The value was 24%.

What about the Weight decreased ([10]; All Grades) of the same molecule?
Its Weight decreased is 16.1%.

And the Fatigue ([10]; All Grades, N = 803)?
Its Fatigue is 30.4%.

What about the “Skin rash (grouped term)” value ([10]; All Grades, listed as Apalutamide) of the same molecule?
The value was 23.8%.

What about the Arthralgia ([10]; Grade 3-4) of the same molecule?
Its Arthralgia is 0%.

And the Fall ([10]; Grade 3-4)?
The Fall was 1.7%.

And the Fatigue ([10]; Grade 3-4)?
The Fatigue was 0.9%.

What about the “Fracture (grouped term)” value ([10]; Grade 3-4) of the same molecule?
Its value is 2.7%.

What about the Hypercholesterolemia ([10]; Grade 3-4) of the same molecule?
The Hypercholesterolemia was 0%.

And the Hypertriglyceridemia ([10]; Grade 3-4)?
The Hypertriglyceridemia was 0.6%.

What about the “Hypothyroidism (grouped term)” value ([10]; Grade 3-4) of the same molecule?
The value was 0%.

And the Pruritus ([10]; Grade 3-4)?
The Pruritus was 0.2%.

What about the Seizure ([10]; Grade 3-4) of the same molecule?
The Seizure was 0%.

What about the “Skin rash (grouped term)” value ([10]; Grade 3-4) of the same molecule?
The value was 5.2%.

And the Weight decreased ([10]; Grade 3-4)?
Its Weight decreased is 1.1%.

And the “onset of skin rash, median” value ([10]; days of treatment)?
The value was 82 days.

What about the “Grade 3 skin rashes (covering >30% body surface area)” value ([10]; in vivo) of the same molecule?
The value was 5.2%.

And the “Hypothyroidism in patients already receiving thyroid replacement therapy” value ([10]; in vivo)?
Its value is 28%.

And the “Hypothyroidism in patients not receiving thyroid replacement therapy” value ([10]; in vivo)?
The value was 5.7%.

And the “discontinuations due to adverse events” value ([10]; in vivo)?
The value was 11%.

And the “dose interruption among patients with skin rash” value ([10]; in vivo)?
Its value is 28%.

And the “dose reduction among patients with skin rash” value ([10]; in vivo)?
Its value is 12%.

And the “dose reduction, reason "other"” value ([10]; in vivo)?
Its value is 9.7%.

And the “dose reduction, reason adverse event” value ([10]; in vivo)?
Its value is 11%.

What about the “patients whose skin rash resolved” value ([10]; in vivo) of the same molecule?
Its value is 81%.

What about the “recurrence of skin rash in patients who were re-challenged” value ([10]; in vivo) of the same molecule?
The value was “approximately half”.

And the “subjects receiving no dose modifications” value ([10]; in vivo)?
Its value is 79%.

What about the “subjects with 2 dose interruptions” value ([10]; in vivo) of the same molecule?
Its value is 6.6%.

What about the “subjects with dose interruptions due to TEAEs” value ([10]; in vivo) of the same molecule?
Its value is 34%.

And the “subjects with dose reductions” value ([10]; in vivo)?
The value was 21%.

What about the “subjects with one dose interruption” value ([10]; in vivo) of the same molecule?
Its value is 22%.

And the “subjects with one dose reduction” value ([10]; in vivo)?
The value was 8.2%.

What about the “subjects with two dose reductions” value ([10]; in vivo) of the same molecule?
Its value is 13%.

And the “time to resolution of rash from onset, median” value ([10]; in vivo)?
The value was 60 days.

What about the “treatment discontinuation among patients who experienced skin rash” value ([10]; in vivo) of the same molecule?
Its value is 9%.

— US11160796B2, “Anti-androgens for the treatment of non-metastatic castration-resistant prostate cancer” (priority 2017, dated 2021)
